Measured values reported in patent publication US7294641B2, “Heterocyclic compound for stimulating or inducing the growth of the hair or eyelashes and/or slowing down their loss, composition comprising it and its uses” (L'Oreal, priority 2002, dated 2007).
pIC50: −log10 of the molar value. Structures can show the parent of a compound that is named as a salt.

Experiments:
15PGDH [1] = target: T1, 15PGDH (Homo sapiens, UniProt P15428); test: Specific inhibitory effectiveness for 15PGDH on a cell model (PGF2 secreted by PMA/LPS-treated U937); format: cell-based; design: endogenous in cells; host or cells: U937 (ATCC CRL-1593), PMA-differentiated, LPS-stimulated; details: 5 μM test molecule, 10 ng LPS, 6 h at 37° C., immuno-enzymatic assay
T1 sequence (P15428 1-266): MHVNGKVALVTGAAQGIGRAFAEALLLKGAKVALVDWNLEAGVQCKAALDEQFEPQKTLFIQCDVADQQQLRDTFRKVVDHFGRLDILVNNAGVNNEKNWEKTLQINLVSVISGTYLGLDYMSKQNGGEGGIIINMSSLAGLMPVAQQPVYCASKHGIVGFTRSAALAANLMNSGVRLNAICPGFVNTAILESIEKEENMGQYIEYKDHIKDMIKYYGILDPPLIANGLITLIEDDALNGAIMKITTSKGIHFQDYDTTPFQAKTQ
Procedure: The present study is targeted at evaluating the compounds of formula (I) in a cell model. This study makes it possible to determine the penetration of the active principle into the cytosol and its effectiveness as specific inhibitor of 15-PGDH under more complex experimental conditions than a simple reaction medium.
D-2. Culturing of U937 (CRL-1593 American Type Cells Collection) in RPMI medium 1640+10% of foetal calf serum+2 mM of L-glutamine+antibiotics at 37° C. under 5% of CO2.
D-1. Preparation of a suspension of U937 (1×10^6 cells/ml) in RPMI medium 1640+10% of foetal calf serum+2 mM of glutamine+antibiotics+10 nM of PMA (phorbol 12-myristate 13-acetate); introduction of 200 μl per test well of this suspension into a 96-well plate (3 wells per molecule and per concentration to be tested+corresponding controls); incubation at 37° C. for 36 h 00 under 5% CO2.
D0. Removal of the supernatants (the cells have adhered to the bottom of the wells: monitoring using a microscope) and introduction into each well of 100 μl of RPMI 1640+2 mM of L-glutamine+10 ng of LipoPolySaccharide (LPS) (except absolute control)+the test molecule at the desired concentration (in this instance, 5 and 25 μM).
Incubation at 37° C. for 6 h 00 under 5% of CO2.
The mother solutions of test molecules are at 25 mM in DiMethyl SulfOxide.
All the wells comprise the same final amount of DMSO. […]

PGF synthase = target: T2, PGF synthase (Homo sapiens, UniProt P42330); test: Test on PGFS (spectrophotometric, 340 nm, 9,10-phenanthrenequinone/β-NADPH); format: biochemical; details: Tris 100 mM pH 6.5, 37° C., 20 μM 9,10-phenanthrenequinone, 100 μM β-NADPH; read-out: Inhibition of PGFS IC50fs
T2 construct: made in house
T2 sequence (P42330 1-323): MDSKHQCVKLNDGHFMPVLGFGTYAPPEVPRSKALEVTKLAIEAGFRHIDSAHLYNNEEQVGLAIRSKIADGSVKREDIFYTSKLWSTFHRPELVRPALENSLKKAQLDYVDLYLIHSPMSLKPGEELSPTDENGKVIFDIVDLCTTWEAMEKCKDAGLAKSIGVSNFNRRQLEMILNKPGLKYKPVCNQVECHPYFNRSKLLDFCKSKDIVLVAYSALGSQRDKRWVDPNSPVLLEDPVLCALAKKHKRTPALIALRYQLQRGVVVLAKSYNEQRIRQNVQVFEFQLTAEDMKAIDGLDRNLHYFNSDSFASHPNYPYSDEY
Procedure: The enzyme PGF synthase is obtained as disclosed in the document FR-A-02/05067, at a concentration of 0.5 mg/ml, in suspension in an appropriate medium, and is blocked at −80° C. For the requirements of the test, this suspension is defrosted and stored in ice.
Furthermore, a Tris 100 mM, pH=6.5, buffer comprising 20 μM of 9,10-phenanthrenequinone* (P2896, Sigma-Aldrich, L'isle D'Abeau Chesne, BP 701, 38297, Saint Quentin Fallavier) and 100 μM of β-NADPH(N1630, Sigma-Aldrich, L'isle D'Abeau Chesne, BP 701, 38297, Saint Quentin Fallavier) is prepared in a brown bottle (exclusion of light).
* A mother solution assaying 1 mM is prepared in absolute ethanol and is brought to 40° C.; the bottle is placed in an ultrasonic bath to facilitate the dissolution of the product.
0.950 ml of this buffer (brought beforehand to 37° C.) is introduced into the cell of a spectrophotometer (Perkin-Elmer, Lambda 2) thermostatically controlled at 37° C., the wavelength of which for the measurement is adjusted to 340 nm. 0.05 ml of enzymatic suspension at 37° C. is introduced into the cell concomitantly with the recording (corresponding to a fall in optical density at 340 nm). The maximum rate of reaction is noted. […]

15PGDH [2] = target: T1, 15PGDH; test: Test on 15-PGDH (spectrophotometric, 340 nm, PGE2/β-NAD); format: biochemical; design: made in house
Procedure: The enzyme 15-PGDH is obtained as disclosed in Application FR-A-02/05067, filed on behalf of L'Oréal, in suspension in a suitable medium at a concentration of 0.3 mg/ml, then blocked at −80° C. For the requirements of the test, this suspension is defrosted and stored in ice.
Furthermore, a Tris 100 mM, pH=7.4, buffer comprising 0.1 mM of dithiothreitol (D5545, Sigma-Aldrich, L'isle D'Abeau Chesne, BP 701, 38297, Saint Quentin Fallavier), 1.5 mM of β-NAD (N6522, Sigma-Aldrich, L'isle D'Abeau Chesne, BP 701, 38297, Saint Quentin Fallavier) and 50 μM of prostaglandin E2 (P4172, Sigma-Aldrich, L'isle D'Abeau Chesne, BP 701, 38297, Saint Quentin Fallavier) is prepared.
0.965 ml of this buffer (brought beforehand to 37° C.) is introduced into the cell of a spectrophotometer (Perkin-Elmer, Lambda 2) thermostatically controlled at 37° C., the wavelength of which for the measurement is adjusted to 340 nm. 0.035 ml of enzymatic suspension at 37° C. is introduced into the cell concomitantly with the recording (corresponding to an increase in optical density at 340 nm). The maximum rate of reaction is noted.
The test values (comprising the compounds (I)) are compared with the control value (without compound (I)); the results indicated represent the concentration at which the compound (I) inhibits 50% of the enzymatic activity of 15-PGDH, referred to as IC50dh.

amount of PGF2 secreted by the cells, % of the LPS control (15PGDH [1])	pIC50 (PGF synthase)	pIC50 (15PGDH [2]; Tris 100 mM pH 7.4, 37° C., 50 μM prostaglandin E2, 1.5 mM β-NAD, read-out: Inhibition of 15-PGDH IC50dh)	ratio IC50fs/IC50dh (15PGDH [2]; selectivity for 15-PGDH with respect to PGFS)	SMILES
+76 ± 20%	5.40	6.52	greater than 13	O=C1NC(=O)C(=Cc2ccc(-c3ccc(C(=O)O)cc3)o2)S1 [Compound 1, 4-{5-[(2,4-Dioxo-1,3-thiazolidin-5-ylidene)methyl]-2-furyl}benzoic acid]
+44 ± 16%	–	–	–	O=C1N=C(O)/C(=C/c2ccc(-c3ccc(C(=O)O)cc3)o2)S1 [Compound 8, Disodium salt of 4-{5-[(2,4-disulpho-1,3-thiazolidin-5-ylidene)methyl]-2-furyl}benzoic acid (isomer Z)]
